This note sets out measurements from ChEMBL document CHEMBL1121748, “Antimycotic imidazoles. 5. Synthesis and antimycotic properties of 1-[[2-aryl-4-(arylalkyl)-1,3-dioxolan-2-yl]methyl]-1H-imidazoles” (1981).

In one experiment the test system is Saprolegnia. Description: Antifungal activity against Saprolegnia species. The experiment is classed as functional.
A further experiment has as its system Streptococcus pyogenes. Briefly: Antibacterial activity against Streptococcus pyogenes. The experiment is classed as functional.
Experiment [1] relates to Staphylococcus haemolyticus. Description: Antibacterial against Staphylococcus hemolyticus. The experiment is classed as functional.
For the next experiment, the system named is Trichophyton benhamiae. Description: Antifungal activity against Trichophyton mentagrophytes. The experiment is classed as functional, trychophyton mentagrophytes.
In another experiment the test system is Candida tropicalis. Description: Antifungal activity against Candida tropicalis. The experiment is classed as functional.
The next experiment deals with Cryptococcus neoformans. Description: Antifungal activity against Cryptococcus neoformans. The experiment is classed as functional.
Experiment [2] in a line: Ratio of animals cured to that of animals infected, tested in vivo for antifungal activity against cutaneous candidosis in guinea pig; 0/2. Also: test concentration or dose not given here. The experiment is classed as functional.
Experiment [3] is described as follows: Ratio of animals cured to that of animals infected, tested in vivo for antifungal activity against vaginal candidosis in rat; 0/2. Also: test concentration or dose not given here.
The subject of another experiment is Sporothrix schenckii. Description: Antifungal activity against Sporothrix schenck ii. The experiment is classed as functional.
A further experiment concerns Aspergillus fumigatus. Description: Antifungal activity against Aspergillus fumigatus. The experiment is classed as functional.
A further experiment relates to Trichophyton rubrum. Description: Antifungal activity against Trichophyton rubrum. The experiment is classed as functional.
Experiment [4] relates to Erysipelothrix rhusiopathiae. Briefly: Antibacterial activity against Erysipelothrix insidiosa. The experiment is classed as functional.
The next experiment deals with Microsporum canis. Description: Antifungal activity against Microsporum canis. The experiment is classed as functional.
The test system of another experiment is Mucor. Briefly: Antifungal activity against Mucor species. The experiment is classed as functional.
The test system of a further experiment is Candida albicans. Briefly: Antifungal activity against Candida albicans. The experiment is classed as functional.
The test system of the next experiment is Phialophora verrucosa. Briefly: Antifungal activity against Phialophora verrucosa. The experiment is classed as functional.
A short description of experiment [5]: Ratio of animals cured to that of animals […], Tested in vivo for antifungal activity against vaginal candidosis in rat; 0/2. The experiment is classed as functional.

Molecules are shown by their SMILES.
For Ratio in this document: test concentration or dose not given here.

As for `Cc1ccc(C2(Cn3ccnc3)OCC(c3ccc(Br)cc3)O2)cc1` (stereo not drawn), the Inhibition is 10 µg/mL with Saprolegnia; below 1 µg/mL with Streptococcus pyogenes; 10 µg/mL in experiment [1]; below 1 µg/mL with Trichophyton benhamiae; above 100 µg/mL in the experiment on Candida tropicalis; above 100 µg/mL with Cryptococcus neoformans. Moreover, the Inhibition in the experiment on Sporothrix schenckii was above 100 µg/mL; in the experiment with Aspergillus fumigatus, below 1 µg/mL; in the experiment with Trichophyton rubrum, below 1 µg/mL; in [4], below 1 µg/mL; with Microsporum canis it was below 1 µg/mL; in the experiment on Mucor it was above 100 µg/mL. For the same molecule, the Inhibition in the experiment on Candida albicans and in the experiment with Phialophora verrucosa was above 100 µg/mL each time. Also, the Ratio in experiment [2] and in experiment [3] was 0 each time.
Turning to `Cc1ccc(C2COC(Cn3ccnc3)(c3ccc(Cl)cc3)O2)cc1` (stereo not drawn), the Inhibition is 100 µg/mL in the experiment with Saprolegnia; below 1 µg/mL in the experiment on Streptococcus pyogenes; 100 µg/mL in experiment [1]; below 1 µg/mL in the experiment with Trichophyton benhamiae; above 100 µg/mL in the experiment with Candida tropicalis; below 1 µg/mL with Cryptococcus neoformans. Further, the Inhibition in the experiment with Sporothrix schenckii was 10 µg/mL; in the experiment with Aspergillus fumigatus, below 1 µg/mL; in the experiment with Trichophyton rubrum, below 1 µg/mL; in experiment [4] it was below 1 µg/mL; in the experiment with Microsporum canis, below 1 µg/mL; in the experiment with Mucor, 100 µg/mL. Also, the Inhibition in the experiment with Candida albicans and in the experiment with Phialophora verrucosa was 100 µg/mL in each case. In experiment [5], the Ratio amounted to 0.
Turning to `Brc1ccc(C2COC(Cn3ccnc3)(c3ccc(Br)cc3)O2)cc1` (stereo not drawn), the Inhibition in the experiment on Saprolegnia is 100 µg/mL; in the experiment with Streptococcus pyogenes, below 1 µg/mL; in [1], 10 µg/mL; with Trichophyton benhamiae it was below 1 µg/mL; with Candida tropicalis, 100 µg/mL; in the experiment with Cryptococcus neoformans it was below 1 µg/mL. The Inhibition with Sporothrix schenckii is 10 µg/mL; with Aspergillus fumigatus it was below 1 µg/mL; in the experiment with Trichophyton rubrum it was below 1 µg/mL; in experiment [4], below 1 µg/mL; in the experiment with Microsporum canis, below 1 µg/mL; in the experiment with Mucor, 10 µg/mL. In addition, the Inhibition in the experiment on Candida albicans was above 100 µg/mL; with Phialophora verrucosa, 100 µg/mL. For the same molecule, the Ratio in experiment [2] and in [3] was 0 each time.
For the molecule `Fc1ccc(CC2COC(Cn3ccnc3)(c3ccc(Cl)cc3Cl)O2)cc1` (stereo not drawn), the Inhibition is 10 µg/mL in the experiment on Saprolegnia; 10 µg/mL in the experiment with Streptococcus pyogenes; 10 µg/mL in experiment [1]; below 1 µg/mL in the experiment on Trichophyton benhamiae; 100 µg/mL in the experiment with Candida tropicalis; 10 µg/mL in the experiment on Cryptococcus neoformans. The Inhibition is 10 µg/mL with Sporothrix schenckii; 10 µg/mL in the experiment with Aspergillus fumigatus; below 1 µg/mL with Trichophyton rubrum; below 1 µg/mL in [4]; below 1 µg/mL with Microsporum canis; below 1 µg/mL with Mucor. Further, the Inhibition with Candida albicans and in the experiment with Phialophora verrucosa was 100 µg/mL in each case. Besides, the Ratio in experiment [5] is listed as 0.
As for `Clc1ccc(C2(Cn3ccnc3)OCC(CCc3ccc(-c4ccccc4)cc3)O2)c(Cl)c1` (stereo not drawn), the Inhibition is 10 µg/mL in the experiment with Saprolegnia; below 1 µg/mL in the experiment on Streptococcus pyogenes; 100 µg/mL in experiment [1]; below 1 µg/mL with Trichophyton benhamiae; above 100 µg/mL in the experiment on Candida tropicalis; 10 µg/mL with Cryptococcus neoformans. For the same molecule, the Inhibition was 10 µg/mL in the experiment on Sporothrix schenckii; 10 µg/mL with Aspergillus fumigatus; below 1 µg/mL with Trichophyton rubrum; below 1 µg/mL in experiment [4]; below 1 µg/mL in the experiment on Microsporum canis; above 100 µg/mL in the experiment with Mucor. Besides, the Inhibition in the experiment on Candida albicans and in the experiment with Phialophora verrucosa was above 100 µg/mL throughout. Further, in experiment [5], the Ratio is recorded as 0.
As to `Clc1ccc(C2(Cn3ccnc3)OCC(Cc3ccc(-c4ccccc4)cc3)O2)c(Cl)c1` (stereo not drawn), the Inhibition with Saprolegnia is 100 µg/mL; with Streptococcus pyogenes, 1 µg/mL; in experiment [1], 10 µg/mL; in the experiment with Trichophyton benhamiae it was below 1 µg/mL; with Candida tropicalis it was above 100 µg/mL; in the experiment with Cryptococcus neoformans, 100 µg/mL. For the same molecule, the Inhibition in the experiment on Sporothrix schenckii was 100 µg/mL; in the experiment with Aspergillus fumigatus, 10 µg/mL; in the experiment on Trichophyton rubrum it was below 1 µg/mL; in experiment [4] it was 1 µg/mL; in the experiment on Microsporum canis, 10 µg/mL; in the experiment with Mucor it was above 100 µg/mL. Also, the Inhibition in the experiment on Candida albicans and with Phialophora verrucosa was above 100 µg/mL in each case. In addition, in experiment [5], the Ratio is given as 0.
In the case of `COc1ccc(CC2COC(Cn3ccnc3)(c3ccc(Cl)cc3Cl)O2)cc1` (stereo not drawn), the Inhibition was 10 µg/mL in the experiment with Saprolegnia; below 1 µg/mL in the experiment with Streptococcus pyogenes; 100 µg/mL in experiment [1]; below 1 µg/mL in the experiment with Trichophyton benhamiae; below 1 µg/mL in the experiment with Microsporum canis; 10 µg/mL in the experiment on Phialophora verrucosa. In experiment [5], the Ratio came to 0.
In the case of `Cc1ccc(CC2COC(Cn3ccnc3)(c3ccc(Cl)cc3Cl)O2)cc1` (stereo not drawn), the Inhibition in the experiment on Saprolegnia was 10 µg/mL; in the experiment on Streptococcus pyogenes, below 1 µg/mL; in experiment [1], below 1 µg/mL; with Trichophyton benhamiae, below 1 µg/mL; in the experiment with Candida tropicalis, above 100 µg/mL; in the experiment with Cryptococcus neoformans it was below 1 µg/mL. In addition, the Inhibition in the experiment on Sporothrix schenckii was 10 µg/mL; in the experiment with Aspergillus fumigatus it was 10 µg/mL; in the experiment with Trichophyton rubrum, below 1 µg/mL; in [4], below 1 µg/mL; in the experiment on Microsporum canis, below 1 µg/mL; in the experiment on Mucor, 10 µg/mL. The Inhibition with Candida albicans stood at 10 µg/mL; in the experiment with Phialophora verrucosa, 100 µg/mL. Also, the Ratio in experiment [5] was 0.
Consider `Clc1ccc(C2COC(Cn3ccnc3)(c3ccc(Br)cc3)O2)cc1` (stereo not drawn), for which the Inhibition with Saprolegnia is 100 µg/mL; in the experiment with Streptococcus pyogenes, 1 µg/mL; in experiment [1], 100 µg/mL; in the experiment with Trichophyton benhamiae it was below 1 µg/mL; with Candida tropicalis, 100 µg/mL; in the experiment with Cryptococcus neoformans, 100 µg/mL. For the same molecule, the Inhibition in the experiment on Sporothrix schenckii is 10 µg/mL; in the experiment with Aspergillus fumigatus, 10 µg/mL; in the experiment on Trichophyton rubrum it was below 1 µg/mL; in [4], 1 µg/mL; in the experiment with Microsporum canis, below 1 µg/mL; with Mucor it was above 100 µg/mL. In addition, the Inhibition is above 100 µg/mL with Candida albicans and 100 µg/mL in the experiment on Phialophora verrucosa. For the same molecule, the Ratio in experiment [2] and in [3] was 0 throughout.
Regarding `Clc1ccccc1C1COC(Cn2ccnc2)(c2ccc(Br)cc2)O1` (stereo not drawn), the Inhibition was 100 µg/mL with Saprolegnia; 10 µg/mL in the experiment with Streptococcus pyogenes; 100 µg/mL in [1]; below 1 µg/mL in the experiment with Trichophyton benhamiae; above 100 µg/mL in the experiment on Candida tropicalis; below 1 µg/mL with Cryptococcus neoformans. The Inhibition with Sporothrix schenckii is 10 µg/mL; in the experiment with Aspergillus fumigatus, 100 µg/mL; in the experiment on Trichophyton rubrum it was below 1 µg/mL; in experiment [4], below 1 µg/mL; in the experiment on Microsporum canis, below 1 µg/mL; with Mucor it was 10 µg/mL. Besides, the Inhibition with Candida albicans and in the experiment with Phialophora verrucosa was 100 µg/mL in each case. The Ratio in experiment [2] and in experiment [3] was 0 in each case.
Turning to `Brc1ccc(C2(Cn3ccnc3)OCC(c3ccccc3)O2)cc1` (stereo not drawn), the Inhibition in the experiment on Saprolegnia is 100 µg/mL; with Streptococcus pyogenes it was below 1 µg/mL; in experiment [1] it was 100 µg/mL; in the experiment on Trichophyton benhamiae it was below 1 µg/mL; in the experiment on Candida tropicalis it was above 100 µg/mL; in the experiment with Cryptococcus neoformans, 10 µg/mL. In addition, the Inhibition in the experiment with Sporothrix schenckii is 100 µg/mL; with Aspergillus fumigatus it was 100 µg/mL; with Trichophyton rubrum, below 1 µg/mL; in [4], 10 µg/mL; with Microsporum canis it was below 1 µg/mL; in the experiment with Mucor it was 100 µg/mL. The Inhibition in the experiment on Candida albicans and in the experiment with Phialophora verrucosa was 100 µg/mL each time. Further, the Ratio in experiment [2] and in experiment [3] was 0 throughout.
With `Clc1cccc(C2(Cn3ccnc3)OCC(c3ccc(Cl)cc3Cl)O2)c1` (stereo not drawn), the Inhibition with Saprolegnia was 100 µg/mL; in the experiment on Streptococcus pyogenes, below 1 µg/mL; in [1] it was 100 µg/mL; in the experiment with Trichophyton benhamiae, 10 µg/mL; in the experiment with Candida tropicalis, 100 µg/mL; with Cryptococcus neoformans it was 100 µg/mL. The Inhibition in the experiment on Sporothrix schenckii was 10 µg/mL; in the experiment with Aspergillus fumigatus, 100 µg/mL; in the experiment on Trichophyton rubrum, below 1 µg/mL; in experiment [4], 10 µg/mL; with Microsporum canis, 100 µg/mL; in the experiment on Mucor it was 100 µg/mL. Moreover, the Inhibition was 100 µg/mL in the experiment with Candida albicans and above 100 µg/mL with Phialophora verrucosa. Besides, the Ratio in experiment [2] and in [3] was 0 each time.
